Assay results published in patent US9902759B2, “BH3 peptides and methods of use thereof” (Dana-Farber Cancer Institute, Inc., priority 2002, dated 2018).
Ends that are not written are not given here.

Experiments:
MCL-1 = MCL-1 (Homo sapiens, UniProt Q07820); assay: MCL-1 binding
GST-BCL-2 [1] = molecular target: T1, GST-BCL-2 (Homo sapiens, UniProt P10415); assay: BH3 peptide displacement from GST-BCL-2 by fluorescence polarization; type: binding
T1 construct: a GST-BCL-2 fusion protein lacking the C-terminal transmembrane domain was utilized; made in house; host or cells: E. coli BL21 DE3
T1 sequence (P10415 1-218 limits assumed): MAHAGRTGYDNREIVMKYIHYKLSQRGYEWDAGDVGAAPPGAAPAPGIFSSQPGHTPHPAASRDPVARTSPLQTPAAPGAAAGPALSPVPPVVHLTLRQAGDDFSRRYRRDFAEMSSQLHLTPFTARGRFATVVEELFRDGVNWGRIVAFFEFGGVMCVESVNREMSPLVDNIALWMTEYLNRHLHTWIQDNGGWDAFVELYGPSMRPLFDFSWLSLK
Text: (§1) To determine Kd for peptide binding to BCL-2, a GST-BCL-2 fusion protein lacking the C-terminal transmembrane domain was utilized. Peptides were synthesized with a fluorescein amino-terminus using an AHA linker. […] An increase in fluorescence polarization measured on a Perkin-Elmer LS 50B luminescence spectrophotometer was quantitated to calculate binding. A non-linear fit to a sigmoidal dose-response curve utilized the program Origin 6.0 to determine Kd. […] Data were fitted to a sigmoidal curve as above, and IC50 determined.
(§2) GST-BCL-2δC21 fusion proteins were induced in BL21 DE3 by 0.1 mM IPTG. The bacterial pellets were resuspended in lysis buffer (1 mg/ml lysozyme/1% Triton X-100/0.1 mg/ml PMSF/2 μg/ml aprotinin/2 μg/ml leupeptine/1 μg/ml pepstatin A in PBS) and sonicated. After centrifugation at 20,000×g for 20 min, the supernatant was applied to glutathione-agarose beads (Sigma). The beads were washed with PBS and treated with 50 mM glutathione/50 mM TrisHCl, pH8.0 to elute protein. Eluate was dialyzed against binding buffer and concentrated using Amicon centrifugal concentrating devices.

GST-BCL-2 [2] = molecular target: T1, GST-BCL-2; assay: Fluorescence polarization binding of fluoresceinated BH3 peptides to GST-BCL-2; conditions: Kd (nM), BCL-2 Binding, 25 nM fluoresceinated peptide, GST-BCL-2 titration, 37° C.
Text: as §1, §2

[3] = system: B-cell lymphoblastic leukemia; assay: Doxycycline treatment of tet-BCL-2/MMTV-tTA/Eμ-myc leukemic mice; type: in vivo, mouse; conditions: doxycycline 500 μg/ml in drinking water, from 4-5 weeks of age
Text: Using standard recombinant DNA technology, the tet-BCL-2 allele was targeted to the DNA methyltransferase 1 locus (FIG. 10). By crossing the new mouse line with the MMTV-tTA line (Jackson Labs) mice were generated which conditionally overexpress BCL-2 in epithelial cells and in B-lineage lymphocytes. Administration of doxycycline successfully suppresses BCL-2 overexpression in these animals. When these mice are crossed with mice expressing myc in the B-lymphocyte lineage (Eμ-myc mice, Jackson Labs) mice which uniformly have B-cell lymphoblastic leukemia were obtained.
To examine the effect of removing BCL-2 expression form the leukemia cells, the effects of doxycycline treatment in a cohort of 28 mice were examined. By genotype, each of the 28 mice contained the tet-BCL-2, the MMTV-tTA, and the Eμ-myc alleles. […] At 4-5 weeks of age, half were treated with doxycycline (500 μg/ml) in drinking water, and half were left untreated. The WBC was measured by hemocytometer using 2 μl blood from tail which was lysed with 0.3% saponin and stained with Hoechst 33258.

MCL-1, sequence (Q07820 whole entry, species assumed): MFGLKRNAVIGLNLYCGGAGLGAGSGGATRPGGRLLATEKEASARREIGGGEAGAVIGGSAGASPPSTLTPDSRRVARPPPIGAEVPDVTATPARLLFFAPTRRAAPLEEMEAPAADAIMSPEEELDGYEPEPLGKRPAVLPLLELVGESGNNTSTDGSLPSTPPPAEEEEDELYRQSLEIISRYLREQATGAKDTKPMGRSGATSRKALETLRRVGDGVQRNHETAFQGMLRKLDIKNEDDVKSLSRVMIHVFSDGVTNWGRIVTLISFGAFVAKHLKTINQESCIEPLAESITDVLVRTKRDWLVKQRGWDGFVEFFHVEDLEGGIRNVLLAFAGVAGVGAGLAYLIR

Row | Compound | Kd (MCL-1) [µM] | IC50 (GST-BCL-2 [1]) [µM] | Kd (GST-BCL-2 [2]) [nM] | decrease in WBC [3]
1 | EDIIRNIARHAAQVGASMDR [BIDBH3 mut] | > 2.6 | > 30 | > 1000 | –
2 | C[C@H]1c2cccc(O)c2C(=O)C2=C(O)[C@]3(O)C(=O)C(C(N)=O)=C(O)[C@@H](N(C)C)[C@@H]3[C@@H](O)[C@@H]21 [doxycycline] | – | – | – | 1-2 log
